Results reported in patent publication US12214092B2, “Systems and methods for treating biological fluids” (Cerus Corporation, priority 2017, dated 2025).

Test system: platelets
Assay: Platelet quality, platelets in 35% plasma/65% PAS III, amotosalen 30-110 μM, 340 nm device ~7.2 J/cm^2
Assay type: cell-based

Cc1oc2c(C)c3oc(=O)cc(C)c3cc2c1COCCN [S-59, 3-(2-aminoethoxymethyl)-2,5,9-trimethylfuro[3,2-g]chromen-7-one]
Glucose (30 μM, D4): 3.27 mmol/L | LDH (30 μM, D4): 7.44 LDH IU/10^11 platelets | Lactate (30 μM, D4): 7.1 mmol/L | Platelet counts (30 μM, D4): 1385 x10^3 cells/μL | Platelet lysis (30 μM, D4): 2.86% | pCO2 at 37° C. (30 μM, D4): 26.7 mm Hg | pH at 22° C. (30 μM, D4): 7.11 | pH at 37° C. (30 μM, D4): 6.88 | pO2 at 37° C. (30 μM, D4): 28.9 mm Hg | Glucose (30 μM, D7): 0.16 mmol/L | LDH (30 μM, D7): 8.26 LDH IU/10^11 platelets | Lactate (30 μM, D7): 15.38 mmol/L | Platelet counts (30 μM, D7): 1392 x10^3 cells/μL | Platelet lysis (30 μM, D7): 3.17% | pCO2 at 37° C. (30 μM, D7): 23.6 mm Hg | pH at 22° C. (30 μM, D7): 7.08 | pH at 37° C. (30 μM, D7): 6.86 | pO2 at 37° C. (30 μM, D7): 57.3 mm Hg | Glucose (30 μM, Post-UV): 5.45 mmol/L | LDH (30 μM, Post-UV): 7.80 LDH IU/10^11 platelets | Lactate (30 μM, Post-UV): 8.21 mmol/L | Platelet counts (30 μM, Post-UV): 1308 x10^3 cells/μL | Platelet lysis (30 μM, Post-UV): 2.85% | pCO2 at 37° C. (30 μM, Post-UV): 34.9 mm Hg | pH at 22° C. (30 μM, Post-UV): 7.07 | pH at 37° C. (30 μM, Post-UV): 6.84 | pO2 at 37° C. (30 μM, Post-UV): 11.6 mm Hg | Glucose (30 μM, Pre-UV): 5.2 mmol/L | LDH (30 μM, Pre-UV): 7.13 LDH IU/10^11 platelets | Lactate (30 μM, Pre-UV): 8.6 mmol/L | Platelet counts (30 μM, Pre-UV): 1346 x10^3 cells/μL | Platelet lysis (30 μM, Pre-UV): 2.46% | pCO2 at 37° C. (30 μM, Pre-UV): 35.0 mm Hg | pH at 22° C. (30 μM, Pre-UV): 7.07 | pH at 37° C. (30 μM, Pre-UV): 6.85 | pO2 at 37° C. (30 μM, Pre-UV): 4.8 mm Hg | Glucose (60 μM, D4): 2.92 mmol/L | LDH (60 μM, D4): 8.12 LDH IU/10^11 platelets | Lactate (60 μM, D4): 10.11 mmol/L | Platelet counts (60 μM, D4): 1379 x10^3 cells/μL | Platelet lysis (60 μM, D4): 3.10% | pCO2 at 37° C. (60 μM, D4): 26.6 mm Hg | pH at 22° C. (60 μM, D4): 7.11 | pH at 37° C. (60 μM, D4): 6.88 | pO2 at 37° C. (60 μM, D4): 28.8 mm Hg | Glucose (60 μM, D7): 0 mmol/L | LDH (60 μM, D7): 8.48 LDH IU/10^11 platelets | Lactate (60 μM, D7): 15.16 mmol/L | Platelet counts (60 μM, D7): 1403 x10^3 cells/μL | Platelet lysis (60 μM, D7): 3.37% | pCO2 at 37° C. (60 μM, D7): 23.1 mm Hg | pH at 22° C. (60 μM, D7): 7.08 | pH at 37° C. (60 μM, D7): 6.86 | pO2 at 37° C. (60 μM, D7): 61.0 mm Hg | Glucose (60 μM, Post-UV): 5.04 mmol/L | LDH (60 μM, Post-UV): 7.53 LDH IU/10^11 platelets | Lactate (60 μM, Post-UV): 6.93 mmol/L | Platelet counts (60 μM, Post-UV): 1249 x10^3 cells/μL | Platelet lysis (60 μM, Post-UV): 2.65% | pCO2 at 37° C. (60 μM, Post-UV): 35.1 mm Hg | pH at 22° C. (60 μM, Post-UV): 7.06 | pH at 37° C. (60 μM, Post-UV): 6.83 | pO2 at 37° C. (60 μM, Post-UV): 8.0 mm Hg | Glucose (60 μM, Pre-UV): 5.16 mmol/L | LDH (60 μM, Pre-UV): 7.66 LDH IU/10^11 platelets | Lactate (60 μM, Pre-UV): 6.72 mmol/L | Platelet counts (60 μM, Pre-UV): 1344 x10^3 cells/μL | Platelet lysis (60 μM, Pre-UV): 2.68% | pCO2 at 37° C. (60 μM, Pre-UV): 33.7 mm Hg | pH at 22° C. (60 μM, Pre-UV): 7.08 | pH at 37° C. (60 μM, Pre-UV): 6.85 | pO2 at 37° C. (60 μM, Pre-UV): 29.4 mm Hg | Glucose (90 μM, D4): 2.97 mmol/L | Lactate (90 μM, D4): 9.83 mmol/L | Platelet counts (90 μM, D4): 1373 x10^3 cells/μL | Platelet lysis (90 μM, D4): 3.23% | pCO2 at 37° C. (90 μM, D4): 26.9 mm Hg | pH at 22° C. (90 μM, D4): 7.10 | pH at 37° C. (90 μM, D4): 6.87 | pO2 at 37° C. (90 μM, D4): 25.7 mm Hg | Glucose (90 μM, D7): 0 mmol/L | LDH (90 μM, D7): 8.67 LDH IU/10^11 platelets | Lactate (90 μM, D7): 14.62 mmol/L | Platelet counts (90 μM, D7): 1384 x10^3 cells/μL | Platelet lysis (90 μM, D7): 3.53% | pCO2 at 37° C. (90 μM, D7): 22.6 mm Hg | pH at 22° C. (90 μM, D7): 7.10 | pH at 37° C. (90 μM, D7): 6.87 | pO2 at 37° C. (90 μM, D7): 61.8 mm Hg | Glucose (90 μM, Post-UV): 4.95 mmol/L | Lactate (90 μM, Post-UV): 7.11 mmol/L | Platelet counts (90 μM, Post-UV): 1313 x10^3 cells/μL | Platelet lysis (90 μM, Post-UV): 2.64% | pCO2 at 37° C. (90 μM, Post-UV): 33.7 mm Hg | pH at 22° C. (90 μM, Post-UV): 7.06 | pH at 37° C. (90 μM, Post-UV): 6.83 | pO2 at 37° C. (90 μM, Post-UV): 29.3 mm Hg | Glucose (90 μM, Pre-UV): 4.9 mmol/L | Lactate (90 μM, Pre-UV): 6.95 mmol/L | Platelet counts (90 μM, Pre-UV): 1344 x10^3 cells/μL | Platelet lysis (90 μM, Pre-UV): 2.76% | pCO2 at 37° C. (90 μM, Pre-UV): 34.9 mm Hg | pH at 22° C. (90 μM, Pre-UV): 7.06 | pH at 37° C. (90 μM, Pre-UV): 6.84 | pO2 at 37° C. (90 μM, Pre-UV): 9.0 mm Hg | Platelet counts (110 μM, D4): 0 x10^3 cells/μL | Platelet counts (110 μM, D7): 0 x10^3 cells/μL | Glucose (110 μM, Post-UV): 4.88 mmol/L | LDH (110 μM, Post-UV): 6.97 LDH IU/10^11 platelets | Lactate (110 μM, Post-UV): 7.18 mmol/L | Platelet counts (110 μM, Post-UV): 1335 x10^3 cells/μL | Platelet lysis (110 μM, Post-UV): 2.72% | pCO2 at 37° C. (110 μM, Post-UV): 34.2 mm Hg | pH at 22° C. (110 μM, Post-UV): 7.05 | pH at 37° C. (110 μM, Post-UV): 6.83 | pO2 at 37° C. (110 μM, Post-UV): 16.1 mm Hg | Glucose (110 μM, Pre-UV): 4.95 mmol/L | LDH (110 μM, Pre-UV): 7.42 LDH IU/10^11 platelets | Lactate (110 μM, Pre-UV): 6.85 mmol/L | Platelet counts (110 μM, Pre-UV): 1308 x10^3 cells/μL | Platelet lysis (110 μM, Pre-UV): 2.65% | pCO2 at 37° C. (110 μM, Pre-UV): 33.7 mm Hg | pH at 22° C. (110 μM, Pre-UV): 7.07 | pH at 37° C. (110 μM, Pre-UV): 6.84 | pO2 at 37° C. (110 μM, Pre-UV): 6.3 mm Hg
